In assay [1] the test system is Plasmodium berghei line expressing luciferase (Pb-luc) sporozoites. In words: Liver stage P. berghei luciferase proliferation assay in CD81-GFP-HepG2 cells. It counts as cell-based. The method, then:
Liver Stage P. berghei Luciferase Proliferation Assay
CD81-GFP-HepG2 cells (obtained from the lab of Dominique Mazier) were seeded into GNF custom Greiner plates (1536-well, white, TC-treated, solid bottom). A final density of 3000 cells/well was achieved by dispensing 5 ul per well of a 600,000 cells/mL resuspended in Assay Media (AM; phenol-red free DMEM, 2% FBS, 5×PSG) via a MicroFlo (Biotek; 5 ul dispense cassette). The seeded assay plates were incubated overnight at 37° C. in an incubator with 5% CO2. The following day, a 10 nL volume of compound was transferred acoustically (ECHO 525, Labcyte Inc.) to each well in the assay plate. Sporozoite forms of a Plasmodium berghei line expressing luciferase (Pb-luc) were dissected and purified from infected Anopheles stephensi mosquitoes (provided by the NYU insectary) as previously described by Meister et al. (Science, 2011). Purified sporozoites (spz) were stored at 250 spz/uL in chilled PBS supplemented with 3% BSA. 3 uL of Pb-luc spz solution was dispensed to each assay well using a Bottlevalve equipped with a custom, single-tip dispense head (GNF Systems). Assay plates were centrifuged at 330×g for 3 minutes to pellet the spz, then the assay plates were returned to the 37° C. incubator for 48 h. Luciferase signal, which corresponds with parasite proliferation, was detected by adding 2 uL of BrightGlo (Promega) to each well using the MicroFlo (Biotek; 1 ul cassette). Luminescence was immediately measured on an Envision MultiLabel Plate Reader (PerkinElmer).

Assay [2] concerns P. falciparum (NF54 or 3D7 strain). In words: P. falciparum proliferation assay in infected human blood cells (SYBR Green). It counts as cell-based. The conditions noted are these: Plasmodium falciparum, Erythrocyte, read-out: EC50 (nM), inhibitory efficacy in delaying P. falciparum proliferation in infected human blood cells. How it is done: Assay for P. falciparum Proliferation in Infected Human Blood Cells
Compounds of the invention can be assayed to measure their capacity to inhibit proliferation of P. falciparum parasitemia in infected red blood cells. This parasite proliferation assay measures the increase in parasite DNA content using a DNA intercalating dye, SYBR Green® (INVITROGEN®) which has a high affinity for double stranded DNA.
NF54 or 3D7 P. falciparum strain is grown in complete culturing media until parasitemia reaches 3% to 8% with O+ human erythrocytes. […] 20 μl of screening media is dispensed into 384 well assay plates. 50 nl of compounds of the invention (in DMSO), including antimalarial controls (mefloquine, pyrimethamine and artemisinin), are then transferred into the assay plates, as well as DMSO alone to serve as a negative control for inhibition. Then 30 μl of a suspension of a NF54 or 3D7 P. falciparum infected erythrocytes in screening media is dispensed into the assay plates such that the final hematocrit is 2.5% with a final parasitemia of 0.3%. The plates are placed in a 37° C. incubator for 72 hours in a low oxygen environment containing 93% N2, 4% CO2, and 3% O2 gas mixture. 10 μl of lysis buffer (saponin, triton-X, EDTA) containing a 10× solution of SYBR Green I® in RPMI media is dispensed into the plates. The plates are lidded and kept at room temperature overnight for the lysis of the infected red blood cells. The fluorescence intensity is measured (excitation 425 nm, emission 530 nm) using the Envision™ system (Perkin Elmer). The percentage inhibition of 50%, EC50, is calculated for each compound.

Where [3] appears, read: read-out: EC50, P. berghei luciferase Proliferation Assay.
Where [4] appears, read: values marked * in Table 2, CD81-GFP-HepG2 cells, 48 h, luminescence, read-out: EC50 (nM), P. berghei luciferase Proliferation Assay.
[5] abbreviates: infected human erythrocytes, 72 hours, SYBR Green fluorescence.

Like-named read-outs stand apart in the source and are kept apart here. Where only a bound is given, the exact number is not on record here.

`CNC(=O)c1ccc(-c2cnn3ccc(C(=O)N(NC)c4ccc(C#N)cc4)cc23)cn1` [Example 92, 5-(5-(1-(4-cyanophenyl)-2-methylhydrazinecarbonyl)pyrazolo[1,5-a]pyridin-3-yl)-N-methyl picolinamide]: the EC50 is at most 20 nM in assay [1] (setting [3]), 15 nM in assay [1] (setting [4]) and 24 nM in assay [2] (setting [5]).

As for `CNC(=O)c1ccc(-c2cnn3ccc(N(C)C(=O)c4ccc(C#N)cn4)cc23)cc1` [Example 94, 5-cyano-N-methyl-N-(3-(4-(methylcarbamoyl)phenyl)pyrazolo[1,5-a]pyridin-5-yl)picolinamide], the EC50 in assay [1] (setting [3]) is at most 20 nM; in assay [1] (setting [4]) it was 13 nM; in assay [2] (setting [5]), 17 nM.

In the case of `CCN(C(=O)c1ccn2ncc(-c3ccc(C(=O)NC)cc3)c2c1)c1ccc(F)cn1` [Example 95, N-ethyl-N-(5-fluoropyridin-2-yl)-3-(4-(methylcarbamoyl)phenyl)pyrazolo[1,5-a]pyridine-5-carboxamide], the figures for the EC50 in assay [1] (setting [3]), in assay [1] (setting [4]) and in assay [2] (setting [5]) were at most 20 nM, 5 nM and 23 nM, respectively.

Turning to `CCN(C(=O)c1ccn2ncc(-c3ccc(C(=O)NC)cc3)c2c1)c1ccc(C(F)(F)F)cn1` [Example 96, N-ethyl-3-(4-(methylcarbamoyl)phenyl)-N-(5-(trifluoromethyl)pyridin-2-yl)pyrazolo[1,5-a]pyridine-5-carboxamide], the figures for the EC50 in assay [1] (setting [3]), in assay [1] (setting [4]) and in assay [2] (setting [5]) were at most 20 nM, 4 nM and 12 nM, respectively.

As to `CNC(=O)c1ccc(-c2cnn3ccc(C(=O)N(c4ccc(C#N)cn4)C4CC4)cc23)nc1` [Example 133, N-(5-Cyanopyridin-2-yl)-N-cyclopropyl-3-(5-(methylcarbamoyl)pyridin-2-yl)pyrazolo[1,5-a]pyridine-5-carboxamide], the EC50 in assay [1] (setting [4]) is 34 nM; in assay [2] (setting [5]), 58 nM.

On to `CNC(=O)c1ccc(-c2cnn3ccc(C(=O)N(c4ccc(C)cn4)C4CC4)cc23)cc1` [Example 136, N-Cyclopropyl-3-(4-(methylcarbamoyl)phenyl)-N-(5-methylpyridin-2-yl)pyrazolo[1,5-a]pyridine-5-carboxamide], for which the EC50 in assay [1] (setting [4]) amounted to 10 nM.

Take `CNC(=O)c1ccc(-c2cnn3ccc(C(=O)N(c4ccc(C#N)cc4)C4CC4)cc23)cn1` [Example 137, N-(4-Cyanophenyl)-N-cyclopropyl-3-(6-(methylcarbamoyl)pyridin-3-yl)pyrazolo[1,5-a]pyridine-5-carboxamide]: the figures for the EC50 in assay [1] (setting [4]) and in assay [2] (setting [5]) were 10 nM and 12 nM, respectively.

For the molecule `CNC(=O)c1ccc(-c2cnn3ccc(C(=O)N(c4ccc(C#N)cc4)C4CC4)cc23)nc1` [Example 141, N-(4-Cyanophenyl)-N-cyclopropyl-3-(5-(methylcarbamoyl)pyridin-2-yl)pyrazolo[1,5-a]pyridine-5-carboxamide], the EC50 in assay [1] (setting [4]) amounted to 17 nM; in assay [2] (72 h), 65 nM.

On to `CNC(=O)c1ccc(-c2cnn3ccc(C(=O)N(c4ccc(Cl)cc4)C4CC4)cc23)cn1` [Example 143, N-(4-Chlorophenyl)-N-cyclopropyl-3-(6-(methylcarbamoyl)pyridin-3-yl)pyrazolo[1,5-a]pyridine-5-carboxamide], for which the EC50 in assay [1] (setting [4]) was 7 nM; in assay [2] (setting [5]) it was 12 nM.

In the case of `CNC(=O)c1ccc(-c2cnn3ccc(C(=O)N(c4ccc(C#N)cn4)C4CCC4)cc23)cn1` [Example 144, N-(5-Cyanopyridin-2-yl)-N-cyclobutyl-3-(6-(methylcarbamoyl)pyridin-3-yl)pyrazolo[1,5-a]pyridine-5-carboxamide], the EC50 in assay [1] (setting [4]) was determined as 22 nM; in assay [2] (setting [5]), 27 nM.

For `CNC(=O)c1ccc(-c2cnn3ccc(C(=O)N(c4ccc(C#N)cc4)C4CCC4)cc23)cn1` [Example 145, N-(4-Cyanophenyl)-N-cyclobutyl-3-(6-(methylcarbamoyl)pyridin-3-yl)pyrazolo[1,5-a]pyridine-5-carboxamide], the results for the EC50 in assay [1] (setting [4]) and in assay [2] (setting [5]) were 8 nM and 12 nM, respectively.

Consider `CNC(=O)c1ccc(-c2cnn3ccc(C(=O)N(c4ccc(C#N)cc4)C(C)C)cc23)cn1` [Example 146, N-(4-Cyanophenyl)-N-isopropyl-3-(6-(methylcarbamoyl)pyridin-3-yl)pyrazolo[1,5-a]pyridine-5-carboxamide], for which the EC50 in assay [1] (setting [4]) stood at 20 nM; in assay [2] (setting [5]) it was 45 nM.

With `CNC(=O)c1ccc(-c2cnn3ccc(N(C(=O)c4ccc(C#N)cn4)C4CC4)cc23)cc1` [Example 147, 5-Cyano-N-cyclopropyl-N-(3-(4-(methylcarbamoyl)phenyl)pyrazolo[1,5-a]pyridin-5-yl) picolinamide], the EC50 in assay [1] (setting [4]) was determined as 151 nM; in assay [2] (setting [5]) it was 814 nM.

For `CNC(=O)c1ccc(-c2cnn3ccc(C(=O)N(c4ccc(C#N)cn4)C(C)C)cc23)cn1` [Example 148, N-(5-Cyanopyridin-2-yl)-N-isopropyl-3-(6-(methylcarbamoyl)pyridin-3-yl)pyrazolo[1,5-a]pyridine-5-carboxamide], the EC50 was found to be 18 nM in assay [1] (setting [4]) and 67 nM in assay [2] (setting [5]).

For `CNC(=O)c1ccc(-c2cnn3ccc(C(=O)N(c4ccc(C#N)c(OC)n4)C4CC4)cc23)cc1` [Example 149, N-(5-Cyano-6-methoxypyridin-2-yl)-N-cyclopropyl-3-(4-(methylcarbamoyl)phenyl)pyrazolo[1,5-a]pyridine-5-carboxamide], the EC50 in assay [1] (setting [4]) amounted to 1 nM; in assay [2] (setting [5]), 4 nM.

For `CCN(C(=O)c1ccn2ncc(-c3ccc(C(=O)NC)nc3)c2c1)c1ccc(C#N)cn1` [Example 150, N-(5-cyanopyridin-2-yl)-N-ethyl-3-(6-[methylcarbamoyl]pyridin-3-yl)pyrazolo[1,5-a]pyridine-5-carboxamide], the EC50 came to 19 nM in assay [1] (setting [4]) and 51 nM in assay [2] (setting [5]).

`CNC(=O)c1ccc(-c2cnn3ccc(C(=O)N(c4ccc(F)cn4)C(C)C)cc23)cc1` [Example 151, N-(5-fluoropyridin-2-yl)-N-isopropyl-3-(4-(methylcarbamoyl)phenyl)pyrazolo[1,5-a]pyridine-5-carboxamide]: the EC50 in assay [1] (setting [4]) worked out at 7 nM; in assay [2] (setting [5]), 67 nM.

For the molecule `CNC(=O)c1ccc(-c2cnn3ccc(C(=O)N(c4ccc(C(F)(F)F)cn4)C(C)C)cc23)cn1` [Example 152, N-Isopropyl-3-(6-(methylcarbamoyl)pyridin-3-yl)-N-(5-(trifluoromethyl)pyridin-2-yl)pyrazolo[1,5-a]pyridine-5-carboxamide], the EC50 was found to be 182 nM in assay [1] (setting [4]) and 228 nM in assay [2] (setting [5]).

On to `CNC(=O)c1ccc(-c2cnn3ccc(C(=O)N(c4ccc(C(F)(F)F)cn4)C(C)C)cc23)cc1` [Example 153, N-Isopropyl-3-(4-(methylcarbamoyl)phenyl)-N-(5-(trifluoromethyl)pyridin-2-yl)pyrazolo[1,5-a]pyridine-5-carboxamide], for which the EC50 in assay [1] (setting [4]) stood at 16 nM; in assay [2] (setting [5]) it was 88 nM.

With `CNC(=O)c1ccc(-c2cnn3ccc(C(=O)N(c4ccc(C#N)cn4)C(C)C)cc23)nc1` [Example 154, N-(5-cyanopyridin-2-yl)-N-isopropyl-3-(5-(methylcarbamoyl)pyridin-2-yl)pyrazolo[1,5-a]pyridine-5-carboxamide], the EC50 turned out to be 36 nM in assay [1] (setting [4]) and 200 nM in assay [2] (72 h).

With `CNC(=O)c1ccc(-c2cnn3ccc(C(=O)N(c4ccc(C#N)cn4)C4CCC4)cc23)nc1` [Example 155, N-(5-Cyanopyridin-2-yl)-N-cyclobutyl-3-(5-(methylcarbamoyl)pyridin-2-yl)pyrazolo[1,5-a]pyridine-5-carboxamide], the values for the EC50 in assay [1] (setting [4]) and in assay [2] (72 h) were 21 nM and 82 nM, respectively.

For `CNC(=O)c1ccc(-c2cnn3ccc(C(=O)N(c4ccc(F)cn4)C(C)C)cc23)cn1` [Example 156, N-(5-fluoropyridin-2-yl)-N-isopropyl-3-(6-(methylcarbamoyl)pyridin-3-yl)pyrazolo[1,5-a]pyridine-5-carboxamide], the EC50 in assay [1] (setting [4]) turned out to be 54 nM; in assay [2] (setting [5]), 210 nM.

For the origin of these results see patent publication US9556169B2, “Compounds and compositions for the treatment of parasitic diseases” (NOVARTIS AG, priority 2012, dated 2017).
